# Assay results from ChEMBL document CHEMBL1129860, “Studies on penam sulfones III. Synthesis and -lactamase inhibitory activity of sodium (6R)-6-(-hydroxybenzyl)-2-methoxyiminomethyl-2-methylpenam-3-carboxylate 1,1-dioxide and sodium 2-acyl-2-methylpenam-3-carboxylate 1,1-dioxide” (1997).
# Tests used:
# Citrobacter freundii [1] = assay: In vitro minimal inhibitory concentration (MIC) of compound in combination with Ceftazidime (CAZ) showed synergic activity against Citrobacter freundii 44032; format: functional
# Citrobacter freundii [2] = assay: In vitro minimal inhibitory concentration (MIC) of compound in combination with Ceftazidime (CAZ) showed synergic activity against Citrobacter freundii CT 76; format: functional
# Klebsiella aerogenes [3] = assay: In vitro minimal inhibitory concentration (MIC) of compound in combination with Ceftazidime (CAZ) showed synergic activity against Enterobacter aerogenes 41003; format: functional
# Klebsiella aerogenes [4] = assay: In vitro minimal inhibitory concentration (MIC) of compound in combination with Ceftazidime (CAZ) showed synergic activity against Enterobacter aerogenes 41004; format: functional
# Klebsiella aerogenes [5] = assay: In vitro minimal inhibitory concentration (MIC) of compound in combination with Ceftazidime (CAZ) showed synergic activity against Enterobacter aerogenes 41006; format: functional
# Enterobacter cloacae [6] = assay: In vitro minimal inhibitory concentration (MIC) of compound in combination with Ceftazidime (CAZ) showed synergic activity against Enterobacter cloacae 40011; format: functional
# Enterobacter cloacae [7] = assay: In vitro minimal inhibitory concentration (MIC) of compound in combination with Ceftazidime (CAZ) showed synergic activity against Enterobacter cloacae E40002; format: functional
# Enterobacter cloacae [8] = assay: In vitro minimal inhibitory concentration (MIC) of compound in combination with Ceftazidime (CAZ) showed synergic activity against Enterobacter cloacae P99; format: functional
# Escherichia coli [9] = assay: In vitro minimal inhibitory concentration (MIC) of compound in combination with Ceftazidime (CAZ) showed synergic activity against Escherichia coli TEM 3; format: functional
# Escherichia coli [10] = assay: In vitro minimal inhibitory concentration (MIC) of compound in combination with Ceftazidime (CAZ) showed synergic activity against Escherichia coli TEM 7; format: functional
# Klebsiella pneumoniae [11] = assay: In vitro minimal inhibitory concentration (MIC) of compound in combination with Ceftazidime (CAZ) showed synergic activity against Klebsiella pneumoniae CTX 1; format: functional
# Morganella morganii [12] = assay: In vitro minimal inhibitory concentration (MIC) of compound in combination with Ceftazidime (CAZ) showed synergic activity against Morganella morganii 36014; format: functional
# Pseudomonas aeruginosa [13] = assay: In vitro minimal inhibitory concentration (MIC) of compound in combination with Ceftazidime (CAZ) showed synergic activity against Pseudomonas aeruginosa 46220 (DR-2); format: functional
# Proteus vulgaris [14] = assay: In vitro minimal inhibitory concentration (MIC) of compound in combination with Ceftazidime (CAZ) showed synergic activity against Proteus vulgaris CT 106; format: functional
# Citrobacter freundii [15] = assay: In vitro minimal inhibitory concentration of compound against Citrobacter freundii 2046E; format: functional
# Citrobacter freundii [16] = assay: In vitro minimal inhibitory concentration of compound against Citrobacter freundii 44032; format: functional
# Escherichia coli [17] = assay: In vitro minimal inhibitory concentration of compound against Escherichia coli OXA 1; format: functional
# Escherichia coli [18] = assay: In vitro minimal inhibitory concentration of compound against Escherichia coli OXA 3; format: functional
# Escherichia coli [19] = assay: In vitro minimal inhibitory concentration of compound against Escherichia coli SHV 1; format: functional
# Escherichia coli [20] = assay: In vitro minimal inhibitory concentration of compound against Escherichia coli SHV 5; format: functional
# Escherichia coli [21] = assay: In vitro minimal inhibitory concentration of compound against Escherichia coli TEM 3; format: functional
# Escherichia coli [22] = assay: In vitro minimal inhibitory concentration of compound against Escherichia coli TEM 7; format: functional
# Klebsiella aerogenes [23] = assay: In vitro minimal inhibitory concentration of compound against Enterobacter aerogenes 41003; format: functional
# Klebsiella aerogenes [24] = assay: In vitro minimal inhibitory concentration of compound against Enterobacter aerogenes 41004; format: functional
# Klebsiella aerogenes [25] = assay: In vitro minimal inhibitory concentration of compound against Enterobacter aerogenes 41006; format: functional
# Enterobacter cloacae [26] = assay: In vitro minimal inhibitory concentration of compound against Enterobacter cloacae 40011; format: functional
# Enterobacter cloacae [27] = assay: In vitro minimal inhibitory concentration of compound against Enterobacter cloacae 40015; format: functional
# Enterobacter cloacae [28] = assay: In vitro minimal inhibitory concentration of compound against Enterobacter cloacae P99; format: functional
# Klebsiella pneumoniae [29] = assay: In vitro minimal inhibitory concentration of compound against Klebsiella pneumoniae CTX 1; format: functional
# Morganella morganii [30] = assay: In vitro minimal inhibitory concentration of compound against Morganella morganii 36014; format: functional
# Pseudomonas aeruginosa [31] = assay: In vitro minimal inhibitory concentration of compound against Pseudomonas aeruginosa 46220 (DR-2); format: functional
# Proteus vulgaris [32] = assay: In vitro minimal inhibitory concentration of compound against Proteus vulgaris CT 106; format: functional
# Serratia marcescens = assay: In vitro minimal inhibitory concentration of compound against Serratia marcescens 200 L; format: functional
# Staphylococcus aureus [33] = assay: In vitro minimal inhibitory concentration of compound against Staphylococcus aureus 80K; format: functional
# Staphylococcus aureus [34] = assay: In vitro minimal inhibitory concentration of compound against Staphylococcus aureus 54K; format: functional
# Klebsiella aerogenes [35] = assay: In vitro minimal inhibitory concentration (MIC) of compound in combination with Ceftazidime (CAZ) showed synergic activity against Enterobacter aerogenes S-97; format: functional
# Enterobacter cloacae [36] = assay: In vitro minimal inhibitory concentration (MIC) of compound in combination with Ceftazidime (CAZ) showed synergic activity against Enterobacter cloacae S-65; format: functional
# Enterobacter cloacae [37] = assay: In vitro minimal inhibitory concentration (MIC) of compound in combination with Ceftazidime (CAZ) showed synergic activity against Enterobacter cloacae S-11; format: functional
# Morganella morganii [38] = assay: In vitro minimal inhibitory concentration (MIC) of compound in combination with Ceftazidime (CAZ) showed synergic activity against Morganella morganii 36030; format: functional
# Pseudomonas aeruginosa [39] = assay: microbe, parasite or virus in culture
# Pseudomonas aeruginosa [40] = assay: microbe, parasite or virus in culture; remark: listed apart in the source
compound,measurement,setting,value
CC(=O)[C@@]1(C)[C@H](C(=O)[O-])N2C(=O)CC2S1(=O)=O.CC(C)(O/N=C(\C(=O)NC1C(=O)N2C(C(=O)[O-])=C(C[n+]3ccccc3)CSC12)c1csc(N)n1)C(=O)O.[Na+] (configuration not stated),MIC,Citrobacter freundii [1],12.5 µg/mL
same,MIC,Citrobacter freundii [2],12.5 µg/mL
same,MIC,Klebsiella aerogenes [3],1.56 µg/mL
same,MIC,Klebsiella aerogenes [4],1.56 µg/mL
same,MIC,Klebsiella aerogenes [5],12.5 µg/mL
same,MIC,Enterobacter cloacae [6],1.56 µg/mL
same,MIC,Enterobacter cloacae [7],12.5 µg/mL
same,MIC,Enterobacter cloacae [8],6.25 µg/mL
same,MIC,Escherichia coli [9],0.39 µg/mL
same,MIC,Escherichia coli [10],0.39 µg/mL
same,MIC,Klebsiella pneumoniae [11],1.56 µg/mL
same,MIC,Morganella morganii [12],≤ 0.2 µg/mL
same,MIC,Pseudomonas aeruginosa [13],6.25 µg/mL
same,MIC,Proteus vulgaris [14],1.56 µg/mL
CCN1CCN(C(=O)N[C@@H](C(=O)N[C@@H]2C(=O)N3[C@@H]2SC(C)(C)[C@@H]3C(=O)O)c2ccccc2)C(=O)C1=O [PIPERACILLIN],MIC,Citrobacter freundii [15],> 400 µg/mL
same,MIC,Citrobacter freundii [16],200 µg/mL
same,MIC,Escherichia coli [17],25 µg/mL
same,MIC,Escherichia coli [18],3.13 µg/mL
same,MIC,Escherichia coli [19],> 400 µg/mL
same,MIC,Escherichia coli [20],200 µg/mL
same,MIC,Escherichia coli [21],200 µg/mL
same,MIC,Escherichia coli [22],> 400 µg/mL
same,MIC,Klebsiella aerogenes [23],12.5 µg/mL
same,MIC,Klebsiella aerogenes [24],12.5 µg/mL
same,MIC,Klebsiella aerogenes [25],100 µg/mL
same,MIC,Enterobacter cloacae [26],50 µg/mL
same,MIC,Enterobacter cloacae [27],100 µg/mL
same,MIC,Enterobacter cloacae [28],100 µg/mL
same,MIC,Klebsiella pneumoniae [29],> 400 µg/mL
same,MIC,Morganella morganii [30],50 µg/mL
same,MIC,Pseudomonas aeruginosa [31],100 µg/mL
same,MIC,Proteus vulgaris [32],200 µg/mL
same,MIC,Serratia marcescens,200 µg/mL
same,MIC,Staphylococcus aureus [33],50 µg/mL
same,MIC,Staphylococcus aureus [34],200 µg/mL
CC(C)(O/N=C(\C(=O)NC1C(=O)N2C(C(=O)[O-])=C(C[n+]3ccccc3)CSC12)c1csc(N)n1)C(=O)O.CO/N=C/[C@@]1(C)[C@H](C(=O)[O-])N2C(=O)[C@@H]([C@@H](O)c3ccccc3)[C@H]2S1(=O)=O.[Na+] (configuration not stated),MIC,Klebsiella aerogenes [35],4 µg/mL
same,MIC,Enterobacter cloacae [36],< 0.25 µg/mL
same,MIC,Enterobacter cloacae [37],< 0.25 µg/mL
same,MIC,"Morganella morganii [12]; Morganella morganii, read-out: MIC",2 µg/mL
same,MIC,Morganella morganii [38],1 µg/mL
same,MIC,Pseudomonas aeruginosa [39],32 µg/mL
same,MIC,Pseudomonas aeruginosa [40],16 µg/mL
